The supplement of paper PMC10307832

Tests used:
Obatoclax = compound: COC1=CC(c2cc3ccccc3[nH]2)=N/C1=C\c1[nH]c(C)cc1C [Obatoclax]; assay: relative viability (nuclei count vs DMSO), 5 days (fraction); higher = more cells survive
Outline: (§1)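 Nuclei counted with MetaXpress define viability as the ratio of treated to vehicle wells, given as a median across plates. The lung cancer cell lines were in 1536-well plates, pinned with five √10-spaced library-drug doses and imaged at 4× after 5 days and Hoechst staining. Plates passed with control CV below 25% and at least one doubling.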

[1] = compound: CC1=CC(=NN1)NC2=CC(=NC(=N2)/C=C/C3=CC=CC=C3)N4CCN(CC4)C; assay: as above
Outline: as §1

NCI-H650
relative viability (Obatoclax; 0.01 µM): 1.02
relative viability (Obatoclax; 0.03162 µM): 0.765
relative viability (Obatoclax; 0.3162 µM): 0.742
relative viability (Obatoclax; 1 µM): 0.445
relative viability ([1]; 0.08 µM): 0.701
relative viability ([1]; 0.253 µM): 1.15
relative viability ([1]; 0.8 µM): 1.1
relative viability ([1]; 2.53 µM): 0.492
relative viability ([1]; 8 µM): 0.208
